Results published in patent publication US10881645B2, “Methods for controlling blood pressure and reducing dyspnea in heart failure” (Chiesi Farmaceutici S.p.A., priority 2012, dated 2021).

How the values were obtained:
[1] = tested on: AHF patients with SBP of ≥160 mmHg; assay: Dyspnea assessment by 100 mm VAS, VMAC scale and PDA; assay type: in vivo, human
Method: Dyspnea was assessed by a 100 mm VAS, in which a score of 0 was “no dyspnea” and a score of 100 represented “worst possible dyspnea.” Dyspnea was evaluated immediately prior to study drug administration, and at 15, 30, 45, 60, 120, 360 and 720 minutes afterward. In addition, the Vasodilation in the Management of Acute Congestive Heart Failure (VMAC) scale, a relative 7 point Likert score, and the Provocative Dyspnea Assessment (PDA) (Pang et al, Eur Heart J2008, 29) were both performed in the seated and supine positions and recorded.

[2] = tested on: AHF patients with SBP of ≥160 mmHg; assay: Randomized open label 13-center trial: blood pressure control, clevidipine vs standard of care; assay type: in vivo, human
Method: (§1) A randomized open label 13-center trial enrolled AHF patients with SBP of ≥160 mmHg, sitting dyspnea score ≥50 on a 100 mm VAS, and a physician's clinical diagnosis of AHF with pulmonary congestion by chest auscultation.
(§2) If the target blood pressure range was not reached within 30 minutes, or not maintained thereafter, alternative antihypertensive agents were allowed per physician discretion, with or without continuation of the study drug.
(§3) Two populations were analyzed. The “safety” population included all patients receiving any study drug, and was used for all safety analyses.

[3] = tested on: AHF patients with SBP of ≥160 mmHg; assay: Safety analyses of the AHF trial (hypotension, adverse events, deaths)
Method: as §1, §2, §3
Historical ejection fraction data was recorded when available.

[4] = in vivo; cited from earlier work
[5] = AHF population, 30-minute target SBP range

SMILES: O=[N+]([O-])OCC(CO[N+](=O)[O-])O[N+](=O)[O-] [nitroglycerin]
- Speed of VAS improvement, SOC subsets ([1]; FIG. 2D, compared with clevidipine): neither nitroglycerin nor nicardipine improved VAS as quickly as clevidipine

SMILES: CCCC(=O)OCOC(=O)C1=C(C)NC(C)=C(C(=O)OC)C1c1cccc(Cl)c1Cl (stereo not drawn) [clevidipine]
- Target blood pressure range achieved, % of patients [2, 5]: 70.5%
- Target blood pressure range achieved, patients/total [2, 5]: 31/44
- AUC above the target blood pressure, median ([2]; in vivo): 327 mmHg×min/h
- AUC below the target blood pressure, median ([2]; in vivo): 0 mmHg×min/h
- AUC outside the target blood pressure, median ([2]; in vivo): 379 mmHg×min/h
- Patients requiring additional antihypertensives ([2]; in vivo): 15.9%
- Rate of being within, but not below, the target blood pressure range ([2]; in vivo): 45.5%
- Median time to reach target blood pressure range ([2]; patients in which the target range was achieved): 15 min
- Duration of SBP <90 mmHg ([3]; human, in vivo): 3.3 min
- Patients who exceeded their lower target blood pressure range limit ([3]; human, in vivo): 15 patients
- Patients with at least one related TEAE, % ([3]; human, in vivo): 9.8%
- Proportion of time that SBP was <90 mmHg while on study drug ([3]; human, in vivo): 2.5%
- SBP <90 mmHg occurred, % of patients ([3]; human, in vivo): 5.9%
- SBP <90 mmHg occurred, patients ([3]; human, in vivo): 3 patients
- Study drug related TEAE: Abdominal discomfort, % ([3]; human, in vivo): 2.0%
- Study drug related TEAE: Abdominal pain, % ([3]; human, in vivo): 2.0%
- Study drug related TEAE: Blurred vision, % ([3]; human, in vivo): 2.0%
- Study drug related TEAE: Flushing, % ([3]; human, in vivo): 2.0%
- Study drug related TEAE: Headache, % ([3]; human, in vivo): 2.0%
- Study drug related TEAE: Myalgia, % ([3]; human, in vivo): 2.0%
- Study drug related TEAE: Nausea, % ([3]; human, in vivo): 2.0%
- Study drug related TEAE: Ventricular tachycardia, % ([3]; human, in vivo): 2.0%
- Incidence of serious adverse events ([3]; human, in vivo, 30 days): 23.5%
- Mean by which the lower target limit was exceeded ([3]; in vivo): 8.7 mmHg
- Mean heart rate change from baseline to 30 minutes ([3]; in vivo): 2.6 bpm
- Symptomatic hypotension, patients ([3]; in vivo): one
- Patients expired within 30 days of treatment ([3]; none during study drug administration): 3 patients
- Mean VAS decrease from baseline ([1]; at 45 minutes, 100 mm dyspnea VAS): 37.1 mm
- Effect on dyspnea compared with nicardipine ([1]; in vivo): significantly greater than the effect of nicardipine on dyspnea
- VAS dyspnea scores over time (treatment×time effect) ([1]; vs SOC): decreased more from baseline with clevidipine than SOC
- VMAC and PDA scores ([1]; vs SOC): non-significant trends toward greater improvement with clevidipine than SOC
- Half-life [4]: about 1 minute
